From patent publication US12453779B2, “Chemoselective thiol-conjugation with alkene or alkyne-phosphonothiolates and -phosphonates” (FORSCHUNGSVERBUND BERLIN E.V., priority 2018, dated 2025)

System: CD30-overexpressing cell line Karpas 299
Assay: Cell based antiproliferation (resazurin) assay, Karpas 299
Conditions: Karpas 299, 96 hours of treatment, Brentuximab-NA3 DAR=3.15

Brentuximab: CD30-addressing antibody
growth inhibition (cell viability): does not show growth inhibition
